Measurements from patent publication US20260166159A1, “KRAS G12D DEGRADATION AGENT, AND PREPARATION METHOD AND USE THEREFOR” (LEADINGTAC PHARMACEUTICAL (SHAOXING) CO., LTD., priority 2022, published 2026).
pIC50: −log10 of the molar value.

Experiments:
[1] = system: KRAS G12D mutant human lung cancer cell A427; test: 3D cell proliferation inhibition assay, A427; format: cell-based; settings: A-427, 168 h, A427, 7 days, CTG
From the text: (§1) The inhibitory effects of the compounds on 3D cell proliferation were investigated on KRAS G12D mutant human lung cancer cell A427, KRAS G12D mutant human gastric cancer cell AGS, KRAS G12D mutant human metastatic pancreatic cancer cell AsPc-1, KRAS G12D mutant human pancreatic cancer cell Panc 04.03, KRAS G12D mutant human pancreatic cancer cell HPAC, KRAS G12V mutant human lung squamous cell carcinoma cell SW900, and KRAS WT human gastric cancer cell MKN1. The specific procedures were as follows:
(§2) 10 μL of each compound solution diluted in a gradient was added to corresponding wells of a 96-well low-adsorption microplate (PerkinElmer), so that the final concentrations of the test compounds in the reaction system were in a range of 10000-0.026 nM. The final concentration of DMSO was 0.2%. Then 90 µL of cells were correspondingly seeded into each well to achieve a cell density of 5×10^2 cells/well (the cell density of SW900 was 5×10^1 cells/well, and the cell density of MKN1 was 1×10^3 cells/well). In addition to test wells for the test compounds, both a DMSO control well and a medium control well were set, with the DMSO control well containing DMSO and cells and the medium well containing only a medium. After the sample loading, the 96-well low-adsorption microplate was incubated in an incubator at 37° C. with 5% carbon dioxide for 7 days. After 7 days, the microplate was taken out, and 100 μL of CTG reagent (Promega) was added to each well. The plate was incubated at room temperature for 60 min and read on a microplate reader EnVision by the chemiluminescence program. The inhibition rates of the compounds at each concentration were calculated using the formula for the percentage inhibition of cell proliferation: inhibition rate %=(mean value of DMSO control group−single concentration reading value of compound)/(mean value of DMSO control group−mean value of medium control group)×100. Then non-linear curve fittings for logarithmic concentration-inhibition rate were performed by GraphPad Prism 8, and the IC50 values of the compounds were obtained (Table 5).

[2] = target: T1, KRAS-G12D (Homo sapiens, UniProt P01116, G12D); test: KRAS-G12D degradation assay (Western Blot), A-427 cells; format: cell-based; settings: A427 cells, 24 h; for Dmax: A-427
T1 construct: endogenous in cells; host or cells: A-427 (ATCC), AGS, AsPc-1, Panc 04.03
T1 sequence (P01116 1-188 isoform P01116-2 G12D): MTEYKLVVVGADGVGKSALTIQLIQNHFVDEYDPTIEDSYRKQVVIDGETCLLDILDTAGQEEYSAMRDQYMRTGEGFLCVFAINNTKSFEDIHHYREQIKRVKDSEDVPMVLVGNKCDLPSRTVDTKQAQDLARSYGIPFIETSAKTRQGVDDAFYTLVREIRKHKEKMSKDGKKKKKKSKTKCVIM
Procedure: The degradation effects of the compounds on KRAS-G12D were investigated on KRAS G12D mutant human lung cancer cell A-427 (ATCC), KRAS G12D mutant human gastric cancer cell AGS, KRAS G12D mutant human metastatic pancreatic cancer cell AsPc-1, and KRAS G12D mutant human pancreatic adenocarcinoma cell Panc 04.03. The specific procedures were as follows: 0.95 mL of cells were seeded into each well of a 24-well cell culture plate to achieve a cell density of 5×10^5 cells/well; and the cell plate was incubated in an incubator at 37° C. with 5% CO2 overnight. Then 50 μL of the compound solution after dilution was added to each of the wells with the corresponding cells, so that the final concentration of the compound was in a range of 0.03-3000 nM. The final concentration of DMSO was 0.25%. After the compounds were added, the cell plate was incubated in the incubator at 37° C. with 5% CO2 for 24 h. The culture medium in the 24-well cell culture plate was removed, and the plate was washed twice with 1×PBS (KeyGEN). 120 μL of RIPA (strong) lysis buffer (Beyotime) supplemented with 1 mM phenylmethylsulfonyl fluoride, a protease inhibitor mixture (Beyotime), and a protease phosphatase inhibitor mixture (Beyotime) was added to lyse adherent A-427 cells at the bottom of the cell culture plate. After the plate was left to stand on ice for 30 min, the protein lysate in each well was transferred to a 1.5 mL centrifuge tube and centrifuged at 15000 g for 20 min at 4° C. The cell lysate supernatants after centrifugation were cryopreserved in a refrigerator at −80° C. for later use.
After the samples of the cell lysate supernatants that had been prepared were thawed from the refrigerator at −80° C., the total protein concentrations of the cell lysates were determined using a BCA protein quantification kit (Tiangen). The total protein concentrations of the samples were then adjusted to 0.5 μg/μL with PBS and 5×SDS-PAGE protein loading buffer (Beyotime), and the samples were incubated in a water bath at 100° C. for 15 min. The samples were then incubated in an ice bath for 5 min and centrifuged at 14000 g for 1 min at 4° C., and the supernatants were mixed well as loading samples for the Western Blot assay. The samples were loaded into wells of a 10% precast gel (KeyGEN) with a loading volume of 10 μL (total protein: 5 μg), a sufficient Tris-MOPS-SDS running buffer (Adamas) was added, and then electrophoresis was performed at a constant voltage of 120 V for 55 min. After the electrophoresis, the proteins on the gel were transferred to PVDF membranes at a constant current of 250 mA for 55 min. After the membrane transfer, the PVDF membranes were incubated in 1× Quick Block blocking buffer (Beyotime) at room temperature for 30 min. After the blocking, the PVDF membranes were separately incubated at 4° C. overnight with the KRAS antibody (Abcam) diluted in a ratio of 1:1000 and the […] antibody (Abcam) diluted in a ratio of 1:2000 in 5% BSA as the diluent, and then washed with 1×TBST buffer (2.4 g of Tris, 8.8 g of NaCl, 1.5 mL of Tween 20, with pH adjusted to 7.4, with the volume brought to 1 L) 3 times for 10 min/time. The membranes were incubated with a secondary antibody (Abcam) diluted in 5% BSA at room temperature for 2 h, and then washed with 1×TBST buffer 3 times for 10 min/time. Finally, the membranes were incubated with Clarity Western ECL Substrate (BIO-RAD) for 5 min for luminescence and color development, and a ChemiScope 6200 Touch chemiluminescence imaging system (Clinx) was used for color development and protein mapping. Gray value analysis of the protein maps was performed using the chemiluminescence analysis software (Clinx). The gray correction value for each sample was calculated using the formula: gray correction value=(gray value of target protein/gray value of corresponding internal reference)×10^3. Then degradation rates were calculated by comparison with the gray correction value of the control group. […]

[3] = system: KRAS G12D mutant human gastric cancer cell AGS; test: 3D cell proliferation inhibition assay, AGS; format: cell-based; settings: 168 h, 7 days, CTG
From the text: as §1, §2

[4] = target: T2, Human KRAS G12D 6His-tagged (Homo sapiens, UniProt P01116, G12D); test: KRAS-G12D/GTP binding assay (HTRF); settings: numeric values
T2 construct: purchased PerkinElmer
T2 sequence (P01116 1-188 isoform P01116-2 G12D): as above
Procedure: In this method, the inhibitory effects of the compounds on the binding of KRAS-G12D to GTP were assayed by a homogeneous time-resolved fluorescence (HTRF) technique using a KRAS-G12D/GTP binding assay kit (PerkinElmer).
The experimental procedures were as follows (refer to the kit instructions for detailed test methods): the compounds of the present disclosure were each firstly dissolved in DMSO at a concentration of 20 mM, and then diluted in an equal gradient with a buffer in the kit, so that the final concentrations of the test compounds in the reaction system were in a range of 0.02-5000 nM, and the final concentration of DMSO was 0.5%. 5 μL of each compound was incubated with 5 μL of 1× Human KRAS G12D 6His-tagged (PerkinElmer), 5 μL of 1×6His Eu Cryptate Antibody (PerkinElmer), and 5 μL of 1×GTP Red reagent (PerkinElmer) in a 384-well plate (Greiner) at 25° C. for 1 h. After the incubation was completed, the fluorescence intensity of each well was measured at the excitation wavelength of 337 nm and the emission wavelengths of 620 nm and 665 nm with an EnVision microplate reader (PerkinElmer) in the HTRF mode, and Ratio values were calculated using the formula: Ratio=(665 nm/620 nm)×[…]. The inhibition rates of the compounds at each concentration were calculated by comparing the fluorescence intensity ratio with that of the control group. Then non-linear curve fittings for logarithmic concentration-inhibition rate were performed using the GraphPad Prism 8 analysis software, and the IC50 values of the compounds were obtained (Table 2).

| pIC50 [4] | SMILES | pIC50 ([1]; class symbols) | DC50 ([2]; class symbols) [nM] | Dmax ([2]; class symbols) [%] | pIC50 ([3]; class symbols) | pIC50 ([1]; numeric values) | DC50 ([2]; numeric values) [nM] | Dmax ([2]; numeric values) [%] | pIC50 ([3]; numeric values) |
| --- | --- | --- | --- | --- | --- | --- | --- | --- | --- |
|  | C#Cc1c(F)ccc2cc(O)cc(-c3ncc4c(N5CC6CCC(C5)N6)nc(NCC5(CN6CCN(CC7CCC8(CC7)CCN(C(=O)c7ccc(C)c(N9CCC(=O)NC9=O)c7)CC8)CC6)CC5)nc4c3F)c12 [Example 44, 1-(5-(9-((4-((1-(((4-(3,8-diazabicyclo[3.2.1]octan-3-yl)-7-(8-ethynyl-7-fluoro-3-hydroxynaphthalen-1-yl)-8-fluoropyrido[4,3-d]pyrimidin-2-yl)amino)methyl)cyclopropyl)methyl)piperazin-1-yl)methyl)-3-azaspiro[5.5]undecane-3-carbonyl)-2-methylphenyl)dihydropyrimidine-2,4(1H,3H)-dione] | 6.30 to 7.00 | ≤ 50 | 80 to 100 | ≥ 7.30 |  |  |  |  |
|  | CCc1cccc2cc(O)cc(-c3ncc4c(N5CC6CCC(C5)N6)nc(NCC5(CN6CCN(CC7CCC8(CC7)CCN(C(=O)c7ccc(Cl)c(N9CCC(=O)NC9=O)c7)CC8)CC6)CC5)nc4c3F)c12 [Example 47, 1-(5-(9-((4-((1-(((4-(3,8-diazabicyclo[3.2.1]octan-3-yl)-7-(8-ethyl-3-hydroxynaphthalen-1-yl)-8-fluoropyrido[4,3-d]pyrimidin-2-yl)amino)methyl)cyclopropyl)methyl)piperazin-1-yl)methyl)-3-azaspiro [5.5]undecane-3-carbonyl)-2-chlorophenyl)dihydropyrimidine-2,4(1H,3H)-dione] | 7.00 to 7.30 | 100 to 500 | 50 to 80 | 7.00 to 7.30 |  |  |  |  |
|  | C#Cc1c(F)ccc2cc(O)cc(-c3ncc4c(N5CC6CCC(C5)N6)nc(OCC5(CN6CCN(CC7CCC8(CC7)CCN(C(=O)c7ccc(F)c(N9CCC(=O)NC9=O)c7)CC8)CC6)CC5)nc4c3F)c12 [Example 48, 1-(5-(9-((4-((1-(((4-(3,8-diazabicyclo[3.2.1]octan-3-yl)-7-(8-ethynyl-7-fluoro-3-hydroxynaphthalen-1-yl)-8-fluoropyrido[4,3-d]pyrimidin-2-yl)oxy)methyl)cyclopropyl)methyl)piperazin-1-yl)methyl)-3-azaspiro[5.5]undecane-3-carbonyl)-2-fluorophenyl)dihydropyrimidine-2,4(1H,3H)-dione] | ≥ 7.30 | ≤ 50 | 80 to 100 | ≥ 7.30 |  |  |  |  |
|  | CCc1cccc2cc(O)cc(-c3ccc4c(N5CC6CCC(C5)N6)nc(OCC5(CN6CCN(CC7CCC8(CC7)CCN(C(=O)c7ccc(Cl)c(N9CCC(=O)NC9=O)c7)CC8)CC6)CC5)nc4c3F)c12 [Example 62, 1-(5-(9-((4-((1-(((4-(3,8-diazabicyclo[3.2.1]octan-3-yl)-7-(8-ethyl-3-hydroxynaphthalen-1-yl)-8-fluoroquinazolin-2-yl)oxy)methyl)cyclopropyl)methyl)piperazin-1-yl)methyl)-3-azaspiro[5.5]undecane-3-carbonyl)-2-chlorophenyl)dihydropyrimidine-2,4(1H,3H)-dione] |  |  |  |  | 7.88 | 15.8 | 94.8 | 8.30 |
| 8.94 | C#Cc1c(F)ccc2cc(O)cc(-c3ncc4c(N5CC6CCC(C5)N6)nc(OCC5(CN6CCC(O)(COCCC7CCN(C(=O)c8ccc(Cl)c(N9CCC(=O)NC9=O)c8)CC7)CC6)CC5)nc4c3F)c12 [Example 63] |  |  |  |  |  |  |  |  |
|  | CCc1c(F)ccc2cc(O)cc(-c3ccc4c(N5CC6CCC(C5)N6)nc(OCC5(CN6CCN(CC7CCC8(CC7)CCN(C(=O)c7ccc(Cl)c(N9CCC(=O)NC9=O)c7)CC8)CC6)CC5)nc4c3F)c12 [Example 74, 1-(5-(9-((4-((1-(((4-(3,8-diazabicyclo[3.2.1]octan-3-yl)-7-(8-ethyl-7-fluoro-3-hydroxynaphthalen-1-yl)-8-fluoroquinazolin-2-yl)oxy)methyl)cyclopropyl)methyl)piperazin-1-yl)methyl)-3-azaspiro[5.5]undecane-3-carbonyl)-2-chlorophenyl)dihydropyrimidine-2,4(1H,3H)-dione] |  |  |  |  | 7.50 | 38.1 | 77 | 7.80 |
|  | C#Cc1cccc2cc(O)cc(-c3ccc4c(N5CC6CCC(C5)N6)nc(OCC5(CN6CCN(CC7CCC8(CC7)CCN(C(=O)c7ccc(OC)c(N9CCC(=O)NC9=O)c7)CC8)CC6)CC5)nc4c3F)c12 [Example 76, 1-(5-(9-((4-((1-(((4-(3,8-diazabicyclo[3.2.1]octan-3-yl)-7-(8-ethynyl-3-hydroxynaphthalen-1-yl)-8-fluoroquinazolin-2-yl)oxy)methyl)cyclopropyl)methyl)piperazin-1-yl)methyl)-3-azaspiro[5.5]undecane-3-carbonyl)-2-methoxyphenyl)dihydropyrimidine-2,4(1H,3H)-dione] |  |  |  |  | 7.13 | 1.74 | 89.3 | 8.02 |
